Data on 5 compounds can be found in patent US7476526B2, “Method of using a gene conferring resistance to 4,5-dihydroxy-2-cyclopenten-1-one (DHCP) and identifying inhibitors of a polypeptide encoded by the gene” (priority 2000, dated 2009).

The subject of assay [1] is E. coli JM83 cells harboring pSP007. Briefly: Minimum inhibitory concentrations on LB plates, cells harboring pSP007 (dep, ORF389). The format is cell-based, Escherichia coli. As to conditions: for MIC: Escherichia coli, cells with pSP007, LB plates, 37 °C, 20 h, same for 3.5 × 10^5 and 3.5 × 10^3 cells; for MIC value for cells harboring pSP007 relative to cells with pUC19: pSP007 versus pUC19. Here is the method: (§1) The E. coli wild-type cells harboring pUC19 or pSP007 plasmid were grown overnight in LB medium containing ampicillin. The cells were diluted 10- and 1000-times, and 5 µl of each dilution (corresponding to 3.5×10^5 cells and 3.5×10^3 cells, respectively) was spotted on LB plates containing serial dilutions of kanamycin, chloramphenicol, spectinomycin, tetracycline and DHCP. Plates were incubated at 37° C. for 20 h. […] The MIC values for cells harboring pUC19 and pSP007 were same for spectinomycin, chloramphenicol and tetracycline. The MIC value was two times higher for kanamycin for the cells harboring pSP007 than the cells with pUC19. The MIC value for DHCP on the other hand was 8 times higher for the cells-harboring pSP007 than that for the cells with pUC19.
(§2) MICs for both dilutions of the cells (3.5×10^5 and 3.5×10^3) were the same.

Assay [2] has as its system E. coli wild-type strain JM83. The assay can be described thus: Effect of DHCP on the growth of E. coli in LB medium (Klett units). As to conditions: for effect on growth: LB medium. The format is cell-based, Escherichia coli. The procedure:
(§3) A. The JM83 cells were grown in LB medium up to Klett unit of 50 and DHCP was added at various concentrations (0-400 µM). After the growth reached to Klett unit of 90-100, cells were diluted with medium containing respective concentrations of DHCP and growth was further monitored. DHCP concentration: 0 . mu.M, open squares; 50 . mu.M, closed diamonds; 100 µM, open circles; 250 . mu.M, open diamonds; 400 . mu.M closed squares. [0023] B. Overnight grown cells of E. coli JM83 were diluted appropriately and plated on LB plates containing different concentrations of DHCP (0-350 . mu.M). The number of colonies on the plate without DHCP was taken as 100% and the other numbers were expressed as relative percentages.
The E. coli wild-type strain JM83 [F^-araΔ (lac-proAB) rpsL(st^r)](Yanisch-Perron et al., 1985) was grown in Luria broth (LB). Media were supplemented with ampicillin (final concentration of 50 . mu.g/ml) whenever required. To check the effect of DHCP on the growth of E. coli, cells grown overnight in LB medium were diluted into fresh LB medium. After the growth reached to the Klett unit of 50, DHCP was added at various concentrations (0-400 . mu.M) and growth was further monitored. After it reached to the Klett unit of 90-100, it was diluted I O-fold into media containing respective concentrations of DHCP. […] In the presence of 400 . mu.M DHCP, cell growth stopped after 4 h of incubation.

The test system of another assay is E. coli JM83. The assay can be described thus: Colony formation ability of E. coli on LB plates containing DHCP. The class given is cell-based, Escherichia coli. The procedure: as §3
To check the colony formation ability of E. coli at various concentrations of DHCP, cells grown overnight in LB medium were diluted appropriately and plated on LB plates containing DHCP (0-350 . mu.M). After incubation at 37. degree. C., the number of colonies on each plate were counted. The number of colonies on the control plate without DHCP was taken as 100% and the other numbers were expressed as relative percentages (FIG. 2B). In the presence of 300 µM DHCP, 100-fold decrease in the colony numbers was observed.

The subject of assay [3] is E. coli JM83 cells harboring pUC19. Briefly: Minimum inhibitory concentrations on LB plates, cells harboring pUC19. The format is cell-based. As to conditions: Escherichia coli, cells with pUC19, 37 °C, 20 h, same for 3.5 × 10^5 and 3.5 × 10^3 cells. Here is the method: as §1, §2

≈ marks a conversion by molar mass, not a printed value. A value given as a limit tells only on which side of the number the result lay.

Consider `O=C1C=CC(O)C1O` (stereo not drawn) [DHCP, 4,5-dihydroxy-2-cyclopenten-1-one], for which the results for the MIC in assay [1] and in assay [3] were 200 mg/L (≈ 1750 µM) and 25 mg/L (≈ 219 µM), respectively. For the same compound, the “MIC value for cells harboring pSP007 relative to cells with pUC19” value in assay [1] is 8 times. Moreover, the values for the effect on growth result in assay [2] (50 μM DHCP), in assay [2] (100 μM DHCP) and in assay [2] (250 μM DHCP) were “growth was slowed after 3 h of incubation”, “grew more slowly after 3 h incubation” and “growth was severely impaired after 3 h of incubation”, respectively. Also, in assay [2] (50 μM DHCP, similar to that without DHCP), the “time to reach the maximum density” value came out at 8 h. The maximum cell density entry in assay [2] (100 μM DHCP, versus without DHCP) is listed as “lower than that without DHCP”. Further, the “time after which cells stopped growing” value in assay [2] (250 μM DHCP) is recorded as 5 h. In addition, the “length of elongated cells (filaments) relative to control cells” value in assay [2] (250 μM DHCP for 8 h, microscopic examination) is listed as “approximately 15 fold”. Moreover, the “time after which cell growth stopped” value in assay [2] (400 μM DHCP) stood at 4 h. For the same compound, the “decrease in the colony numbers” value in the assay with E. coli JM83 (300 μM DHCP, LB plates, 37 °C) was determined as 100 fold. Also, in the assay with E. coli JM83 (350 μM DHCP, 1×10^4 cells plated on LB medium), the colony formation result is “no colonies were obtained”. Moreover, in the assay with E. coli JM83 (E. coli), the “concentration at which DHCP inhibits cell growth” value was at least 350 µM.

With `NC[C@H]1O[C@H](O[C@H]2[C@H](O)[C@@H](O[C@H]3O[C@H](CO)[C@@H](O)[C@H](N)[C@H]3O)[C@H](N)C[C@@H]2N)[C@H](O)[C@@H](O)[C@@H]1O` [kanamycin], the MIC in assay [1] was 50 mg/L (≈ 103 µM); in assay [3], 25 mg/L (≈ 51.6 µM).

Turning to `O=C(N[C@H](CO)[C@H](O)c1ccc([N+](=O)[O-])cc1)C(Cl)Cl` [chloramphenicol], in assay [1], the MIC came out at 6.25 mg/L (≈ 19.3 µM) and the “MIC value for cells harboring pSP007 relative to cells with pUC19” value is “same”. For the same compound, the lowest concentration to inhibit growth in assay [3] (MIC) was 6.25 mg/L (≈ 19.3 µM).

With `CN[C@@H]1[C@H](O)[C@H](NC)[C@H]2O[C@@]3(O)C(=O)C[C@@H](C)O[C@H]3O[C@@H]2[C@H]1O` [spectinomycin], in assay [1], it took 12.5 mg/L (≈ 37.6 µM) to inhibit growth (MIC) and the “MIC value for cells harboring pSP007 relative to cells with pUC19” value is given as “same”. The same compound yielded an MIC in assay [3] of 12.5 mg/L (≈ 37.6 µM).

For `CN(C)[C@@H]1C(O)=C(C(N)=O)C(=O)[C@@]2(O)C(O)=C3C(=O)c4c(O)cccc4[C@@](C)(O)[C@H]3C[C@@H]12` [tetracycline], the MIC in assay [1] and in assay [3] was 3.12 mg/L (≈ 7.03 µM) in each case.

As usually defined, the MIC is the lowest concentration that inhibits growth of the organism.
